The source of these data is patent US20240043419A1, “CLASS OF 1,7-NAPHTHYRIDINE COMPOUNDS AND APPLICATION THEREOF” (Medshine Discovery Inc., priority 2020, published 2024).

SMILES strings stand for the structures.

In one data set the test system is tumor cell line LoVo. Put plainly: in vitro LoVo cell proliferation inhibition assay (CellTiter-Glo cell viability). It is filed as cell-based. As to conditions: Homo sapiens, LoVo cells. The method, then:
In this assay, the effect of the compounds on inhibiting cell proliferation was studied by detecting the effect of the compounds on the cell viability in vitro in the tumor cell line LoVo.
Cell viability detection using CellTiter-Glo luminescence assay
The following steps were performed according to the instructions of the Promega CellTiter-Glo Luminescent Cell Viability Detection Kit (Promega-G7573).
(1). A CellTiter-Glo buffer was thawed and allowed to stand to reach room temperature.
(2). A CellTiter-Glo substrate was allowed to stand to reach room temperature.
(3). The CellTiter-Glo buffer was added to the CellTiter-Glo substrate in a bottle to dissolve the substrate to formulate a CellTiter-Glo working solution.
(4). The working solution was vortexed slowly for fully dissolution.
(5). A cell culture plate was taken out and allowed to stand for 30 minutes to equilibrate to room temperature.
(6). 50 μL (equal to half the volume of cell culture solution in each well) of the CellTiter-Glo working solution was added into each well. The cell plate was wrapped with aluminum foil to protect the cell plate from light.
(7). The culture plate was shaken on an orbital shaker for 2 minutes to induce cell lysis.
(8). The culture plate was left at room temperature for 10 minutes to stabilize luminescent signals.
(9). The luminescent signals were detected on a plate reader (SpectraMax i3x of MolecμLar Devices).
The inhibition rate (IR) of the assay compounds was calculated by the following formula:
IR (%)=(1−(RLU of compound−RLU of blank control)/(RLU of vehicle control−RLU of blank control))*100%.
The inhibition rates of different concentrations of compounds were calculated in Excel, and then GraphPad Prism software was used to draw inhibition curves and calculate relevant parameters, including the minimum inhibition rate, maximum inhibition rate, and IC50.
For orientation: ATP-based viability assays read luminescence as a measure of living cells.

Another data set relates to CHK1(p-Ser345). The data set is described as follows: Assay of CHK1(p-Ser345) in vitro: inhibition of CHK1 phosphorylation in HT29 cells after 4NQO, alpha screen. In kind it is cell-based. As to conditions: Homo sapiens, read-out: % Inhibition of CHKI phosphorylation; for inhibition at 0.0002 µM: HT-29, 0.2 nM compound; for inhibition at 0.025 µM: HT-29, 25 nM compound. The method, then: The assay process was as follows: • 1) When cells HT29 grew to about 80% confluence, the cells were digested and plated on a 96-well plate (80,000 cells/well), and 90 ul of cell suspension was added to each well; the cell plate was placed in a 5% carbon dioxide, 37° C. incubator overnight; • 2) The next day, the supernatant was removed from the cell plate, and 90 ul of compounds with different concentrations were added; the plate was incubated at 37° C. for 1 hour, and then 10 ul of 7 uM 4NQO medium was added; the plate was incubated at 37° C. for 1 hour; • 3) After the incubation was completed, the supernatant was removed, and 50 ul/well cell lysate was added; the plate was shaken and incubated at room temperature for 50 minutes; • 4) After the incubation was completed, 8 ul/well cell lysate was transferred to a 384-well detection plate, and 5 ul of Acceptor was added; the plate was incubated at room temperature for 2 hours; • 5) Then 2 ul of Donor was added, and the plate was incubated at room temperature overnight; • 6) After the incubation was completed, alpha screen reading was performed.

Data set [1] can be described thus: Pharmacokinetics in vivo in mice, single intravenous or single oral administration, plasma LC-MS/MS. As to conditions: mouse, female Balb/c Nude mice. On the procedure: The purpose of this assay is to study the pharmacokinetics of the compound of the present disclosure in the plasma of female Balb/c Nude mice after a single intravenous administration or a single oral administration.
In the intravenous group, plasma samples were collected at 9 time points of 5 minutes, 15 minutes, 30 minutes, 1 hour, 2 hours, 4 hours, 6 hours, 8 hours and 24 hours after administration; in the oral group, plasma samples were collected at 8 time points of 15 minutes, 30 minutes, 1 hour, 2 hours, 4 hours, 6 hours, 8 hours and 24 hours after administration; the samples were analyzed by LC-MS/MS for the plasma concentration data of the compound of the present disclosure, and the pharmacokinetic parameters, such as peak concentration, time to peak, clearance rate, half-life, maximum plasma drug concentration, area under the drug-time curve were calculated.

Data set [2] relates to subcutaneous xenograft tumor of human colorectal cancer LoVo cells. The data set is described as follows: In vivo pharmacodynamics on subcutaneous xenograft tumor of human colorectal cancer LoVo cells in BALB/c nude mouse model. As to conditions: oral 40 mg/kg, twice a day, 4 days on and 3 days rest per week, 21 days of administration. The arrangement: species or system BALB/c nude mice. The method, then: In this assay, the inhibitory effect of the compound of the present disclosure on the growth of subcutaneous xenograft tumor of human colorectal cancer LoVo cells was studied at an oral dosage of 40 mg/kg, twice a day, with 4 consecutive days of administration and 3 days of rest per week.
Assay method: The selected assay animals (provided by Shanghai Sippe-Bk Lab Animal Co., Ltd.) were BALB/c nude mice, 6-8 weeks old, weighing 18-22 grams.
Human colon cancer LoVo cells were cultured in a single layer in vitro with a culture condition of Ham's F-12 medium plus 10% fetal bovine serum, 100 U/mL penicillin, 100 μg/mL streptomycin and 2 mM glutamine, 37° C., 5% CO2. Cells were routinely digested and passaged with trypsin-EDTA twice a week. When the cell saturation was 80%-90%, the cells were collected, counted and inoculated. 0.1 mL (10×10^6 cells) of LoVo cells were subcutaneously inoculated on the right back of each nude mouse, and the mice were grouped and administered when the average tumor volume reached 146 mm^3. Tumor diameters were measured twice a week with vernier calipers. The calculation formula of tumor volume was: V=0.5 a×b^2, wherein a and b represent the long and short diameters of tumor, respectively.
The antitumor efficacy of the compound was evaluated by TGI (%) or relative tumor proliferation rate T/C (%). TGI (%) reflected the inhibition rate of tumor growth. […]
(In general: In xenograft studies the graft and the host belong to different species.)

As usually defined, the IC50 is the midpoint of a concentration-inhibition curve. High values mean weaker potency in that assay, low ones greater potency in that assay. For orientation: inhibition means how much of the control response was suppressed. In the data set on tumor cell line LoVo, `C[C@@H]1COCCN1c1cc(C2(C#N)CCOCC2)c2c(F)cnc(-c3ccn[nH]3)c2n1` [Example 3] gave an IC50 of 61 nM. For the same compound, in the data set on CHK1(p-Ser345), the inhibition at 0.0002 µM was 4.52% and the inhibition at 0.025 µM came out at 93.2%. Compound `C[C@@H]1COCCN1c1cc(C2(O)CCOCC2)c2c(F)cnc(-c3ccn[nH]3)c2n1` [Example 12] gave an IC50 in the data set on tumor cell line LoVo of 129 nM.

On to `C[C@@H]1COCCN1c1cc(C2CCOCC2)c2c(F)cnc(-c3ccn[nH]3)c2n1` [Example 11], for which half-maximal inhibition in the data set with tumor cell line LoVo (IC50) required 59 nM. Still for that read-out and setting: under `Cc1noc(C)c1-c1cc(N2CCOC[C@H]2C)nc2c(-c3ccn[nH]3)ncc(F)c12` [Example 15] stands 182 nM.

On to `C[C@@H]1COCCN1c1cc(-c2ccnc3[nH]ccc23)c2c(F)cnc(-c3ccn[nH]3)c2n1` [Example 24], for which, in the data set with tumor cell line LoVo, it took 59 nM to reach half-maximal inhibition (IC50). In the data set on CHK1(p-Ser345), the inhibition at 0.0002 µM stood at 9.72% and the inhibition at 0.025 µM was determined as 88%. In the data set with tumor cell line LoVo, `C[C@@H]1COCCN1c1cc(-c2ccc(S(C)(=O)=O)cc2)c2c(F)cnc(-c3ccn[nH]3)c2n1` [Example 23] had an IC50 of 84 nM. For the compound `C[C@@H]1COCCN1c1cc(C2=CCOCC2)c2c(F)cnc(-c3ccn[nH]3)c2n1` [Example 10], inhibition in the data set with tumor cell line LoVo was half-maximal at 82 nM (IC50). On the same count and under the same terms, under `Cn1nccc1-c1cc(N2C3CCC2COC3)nc2c(-c3ccn[nH]3)ncc(F)c12` [Example 28] stands 253 nM. With `CC(C)Oc1cc(N2CCOC[C@H]2C)nc2c(-c3ccn[nH]3)ncc(F)c12` [Example 8], the midpoint of inhibition in the data set with tumor cell line LoVo, the IC50, lay at 181 nM. Besides, in the data set with CHK1(p-Ser345), the inhibition at 0.0002 µM amounted to 3.79% and the inhibition at 0.025 µM was found to be 75.9%. In the data set on tumor cell line LoVo, `C[C@@H]1COCCN1c1cc(-c2ncnn2C)c2c(F)cnc(-c3ccn[nH]3)c2n1` [Example 6] gave an IC50 of 395 nM. The same measure, in the same setting: under `C[C@@H]1COCCN1c1cc(-c2ccncc2F)c2c(F)cnc(-c3ccn[nH]3)c2n1` [Example 22] stands 80 nM. As to `C[C@@H]1COCCN1c1cc(-c2ccnn2C)c2c(F)cnc(-c3ccn[nH]3)c2n1` [Example 1], half-maximal inhibition in the data set on tumor cell line LoVo (IC50) required 64 nM. Besides, the clearance in data set [1] (Intravenous injection (1 mg/kg), read-out: Clearance rate) was 13.7 mL/min/kg. In addition, the half-life in data set [1] (Intravenous injection (1 mg/kg), read-out: Half-life T1/2 (converted)) is 31.7 min. Also, in data set [1] (Oral (10 mg/kg), read-out: Area under the drug-time curve AUC0-24 h), the AUC(0-t) was 41.2 µM·h. Further, the Cmax in data set [1] (Oral (10 mg/kg), read-out: Maximum plasma drug concentration Cmax) is 23.6 µM. In addition, in the data set with CHK1(p-Ser345), the inhibition at 0.0002 µM was 10.8% and the inhibition at 0.025 µM amounted to 98%. Moreover, the “TGI (%)” value in data set [2] is 92.4%. `Cc1nnn(C)c1-c1cc(N2CCOC[C@H]2C)nc2c(-c3ccn[nH]3)ncc(F)c12` [Example 18] displayed an IC50 in the data set with tumor cell line LoVo of 146 nM.

As for `C[C@@H]1COCCN1c1cc(C2CC2)c2c(F)cnc(-c3ccn[nH]3)c2n1` [Example 9], the IC50 in the data set with tumor cell line LoVo was 89 nM. Regarding `Cc1nn(C)cc1-c1cc(N2CCOC[C@H]2C)nc2c(-c3ccn[nH]3)ncc(F)c12` [Example 14], the IC50 with tumor cell line LoVo stood at 103 nM. `Cc1cc(-c2cc(N3CCOC[C@H]3C)nc3c(-c4ccn[nH]4)ncc(F)c23)n(C)n1` [Example 16] displayed an IC50 in the data set with tumor cell line LoVo of 31 nM. In addition, in the data set on CHK1(p-Ser345), the inhibition at 0.0002 µM came to 12.3% and the inhibition at 0.025 µM was 97.5%. Take `Cc1cnn(C)c1-c1cc(N2CCOC[C@H]2C)nc2c(-c3ccn[nH]3)ncc(F)c12` [Example 2]: half-maximal inhibition with tumor cell line LoVo (IC50) was put at 78 nM. Compound `C[C@@H]1COCCN1c1cc(N2CCC3(CNC3)C2)c2c(F)cnc(-c3ccn[nH]3)c2n1` [Example 27] showed a 50% inhibitory concentration (IC50) with tumor cell line LoVo of 374 nM. In the data set on CHK1(p-Ser345), the inhibition at 0.0002 µM is 8.45% and the inhibition at 0.025 µM was found to be 78.3%. In the data set with tumor cell line LoVo, `Cc1cnccc1-c1cc(N2CCOC[C@H]2C)nc2c(-c3ccn[nH]3)ncc(F)c12` [Example 20] showed an IC50 of 41 nM. In the data set with CHK1(p-Ser345), the inhibition at 0.0002 µM worked out at 6.34% and the inhibition at 0.025 µM was determined as 95.5%. In the data set on tumor cell line LoVo, `C[C@@H]1COCCN1c1cc(-c2cnnn2C)c2c(F)cnc(-c3ccn[nH]3)c2n1` [Example 4] registered a half-inhibitory concentration (IC50) of 141 nM. Regarding `Cn1nccc1-c1cc(N2CC3CCC(C2)O3)nc2c(-c3ccn[nH]3)ncc(F)c12` [Example 29], in the data set with tumor cell line LoVo, the IC50 came to 475 nM. In the data set on CHK1(p-Ser345), the inhibition at 0.0002 µM was determined as 5.34% and the inhibition at 0.025 µM came to 64.5%. With `Cc1ncccc1-c1cc(N2CCOC[C@H]2C)nc2c(-c3ccn[nH]3)ncc(F)c12` [Example 21], in the data set on tumor cell line LoVo, the IC50 amounted to 77 nM. For the compound `Cc1n[nH]c(C)c1-c1cc(N2CCOC[C@H]2C)nc2c(-c3ccn[nH]3)ncc(F)c12` [Example 17], the IC50 in the data set with tumor cell line LoVo worked out at 99 nM. In the case of `C[C@@H]1COCCN1c1cc(N2CCOCC2)c2c(F)cnc(-c3ccn[nH]3)c2n1` [Example 13], the IC50 with tumor cell line LoVo came to 66 nM.
